According to the supplement of paper PMC10307832:

Key:
Experiment in all cases: relative viability (nuclei count vs DMSO), 5 days (fraction); higher = more cells survive
NCI-H650 = test system: NCI-H650
Method in brief: (§1)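 Relative viability was taken as the ratio of nuclei in treated wells to nuclei in vehicle wells. Lung cancer cell lines in 1536-well plates received compounds by pin tool one day after seeding, either one drug alone or a fixed anchor-drug dose plus five library-drug doses (not always all listed) in √10 steps. Nuclei were counted on 4× images after 5 days of treatment, and values are medians of duplicate plates.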

NCI-H441 = test system: NCI-H441
Method in brief: as §1

NCI-H2085 = test system: NCI-H2085
Method in brief: as §1

NCI-H2170 = test system: NCI-H2170
Method in brief: as §1

NCI-H2228 = test system: NCI-H2228
Method in brief: as §1

LOU-NH91 = test system: LOU-NH91
Method in brief: as §1

NCI-H727 = test system: NCI-H727
Method in brief: as §1

NCI-H1651 = test system: NCI-H1651
Method in brief: as §1

NCI-H1650 = test system: NCI-H1650
Method in brief: as §1

SW 900 = test system: SW 900
Method in brief: as §1

NCI-H2023 = test system: NCI-H2023
Method in brief: as §1

HARA = test system: HARA
Method in brief: as §1

NCI-H2087 = test system: NCI-H2087
Method in brief: as §1

EPLC-272H = test system: EPLC-272H
Method in brief: as §1

SW 1573 = test system: SW 1573
Method in brief: as §1

NCI-H1975 = test system: NCI-H1975
Method in brief: as §1

H3255 = test system: H3255
Method in brief: as §1

NCI-H23 = test system: NCI-H23
Method in brief: as §1

PC-3 [JPC-3] = test system: PC-3 [JPC-3]
Method in brief: as §1

NCI-H838 = test system: NCI-H838
Method in brief: as §1

UMC-11 = test system: UMC-11
Method in brief: as §1

LC-2-ad = test system: LC-2-ad
Method in brief: as §1

NCI-H2009 = test system: NCI-H2009
Method in brief: as §1

Question: Which relative viability (NCI-H650; first compound 0.001 µM) does the source give for `Cc1cn(-c2cc(NC(=O)c3ccc(C)c(Nc4nccc(-c5cccnc5)n4)c3)cc(C(F)(F)F)c2)cn1` [Nilotinib] + Cc1nc(Nc2ncc(C(=O)Nc3c(C)cccc3Cl)s2)cc(N2CCN(CCO)CC2)n1 [Dasatinib] (partner 0.075 µM) here?
Answer: 0.462

Question: What about the relative viability (NCI-H650; first compound 0.003162 µM) of the same molecule?
Answer: 0.479

Question: What about the relative viability (NCI-H650; first compound 0.01 µM) of the same molecule?
Answer: 0.49

Question: What about the relative viability (NCI-H650; first compound 0.03162 µM) of the same molecule?
Answer: 0.408

Question: What about the relative viability (NCI-H650; first compound 0.1 µM) of the same molecule?
Answer: 0.379

Question: And the relative viability (NCI-H441; first compound 0.001 µM)?
Answer: 0.523

Question: What about the relative viability (NCI-H441; first compound 0.003162 µM) of the same molecule?
Answer: 0.712

Question: What about the relative viability (NCI-H441; first compound 0.01 µM) of the same molecule?
Answer: 0.632

Question: What about the relative viability (NCI-H441; first compound 0.03162 µM) of the same molecule?
Answer: 0.369

Question: What about the relative viability (NCI-H441; first compound 0.1 µM) of the same molecule?
Answer: 0.417

Question: And the relative viability (NCI-H2085; first compound 0.001 µM)?
Answer: 0.28

Question: What about the relative viability (NCI-H2085; first compound 0.003162 µM) of the same molecule?
Answer: 0.198

Question: What about the relative viability (NCI-H2085; first compound 0.01 µM) of the same molecule?
Answer: 0.179

Question: And the relative viability (NCI-H2085; first compound 0.03162 µM)?
Answer: 0.231

Question: What about the relative viability (NCI-H2085; first compound 0.1 µM) of the same molecule?
Answer: 0.248

Question: And the relative viability (NCI-H2170; first compound 0.001 µM)?
Answer: 0.591

Question: What about the relative viability (NCI-H2170; first compound 0.003162 µM) of the same molecule?
Answer: 0.576

Question: What about the relative viability (NCI-H2170; first compound 0.01 µM) of the same molecule?
Answer: 0.736

Question: What about the relative viability (NCI-H2170; first compound 0.03162 µM) of the same molecule?
Answer: 0.465

Question: What about the relative viability (NCI-H2170; first compound 0.1 µM) of the same molecule?
Answer: 0.406

Question: What about the relative viability (NCI-H2228; first compound 0.003162 µM) of the same molecule?
Answer: 0.622

Question: And the relative viability (NCI-H2228; first compound 0.01 µM)?
Answer: 0.628

Question: And the relative viability (NCI-H2228; first compound 0.03162 µM)?
Answer: 0.424

Question: And the relative viability (NCI-H2228; first compound 0.1 µM)?
Answer: 0.159

Question: What about the relative viability (LOU-NH91; first compound 0.001 µM) of the same molecule?
Answer: 0.524

Question: And the relative viability (LOU-NH91; first compound 0.003162 µM)?
Answer: 0.619

Question: What about the relative viability (LOU-NH91; first compound 0.01 µM) of the same molecule?
Answer: 0.569

Question: What about the relative viability (LOU-NH91; first compound 0.03162 µM) of the same molecule?
Answer: 0.489

Question: And the relative viability (LOU-NH91; first compound 0.1 µM)?
Answer: 0.583

Question: And the relative viability (NCI-H727; first compound 0.001 µM)?
Answer: 0.415

Question: What about the relative viability (NCI-H727; first compound 0.003162 µM) of the same molecule?
Answer: 0.339

Question: What about the relative viability (NCI-H727; first compound 0.01 µM) of the same molecule?
Answer: 0.425

Question: What about the relative viability (NCI-H727; first compound 0.03162 µM) of the same molecule?
Answer: 0.41

Question: What about the relative viability (NCI-H727; first compound 0.1 µM) of the same molecule?
Answer: 0.302

Question: What about the relative viability (NCI-H1651; first compound 0.001 µM) of the same molecule?
Answer: 0.426

Question: And the relative viability (NCI-H1651; first compound 0.003162 µM)?
Answer: 0.387

Question: What about the relative viability (NCI-H1651; first compound 0.01 µM) of the same molecule?
Answer: 0.42

Question: And the relative viability (NCI-H1651; first compound 0.1 µM)?
Answer: 0.208

Question: And the relative viability (NCI-H1650; first compound 0.001 µM)?
Answer: 0.335

Question: What about the relative viability (NCI-H1650; first compound 0.003162 µM) of the same molecule?
Answer: 0.32

Question: What about the relative viability (NCI-H1650; first compound 0.01 µM) of the same molecule?
Answer: 0.265

Question: And the relative viability (NCI-H1650; first compound 0.03162 µM)?
Answer: 0.321

Question: And the relative viability (NCI-H1650; first compound 0.1 µM)?
Answer: 0.21

Question: What about the relative viability (SW 900; first compound 0.001 µM) of the same molecule?
Answer: 0.538

Question: What about the relative viability (SW 900; first compound 0.003162 µM) of the same molecule?
Answer: 0.617

Question: And the relative viability (SW 900; first compound 0.01 µM)?
Answer: 0.564

Question: And the relative viability (SW 900; first compound 0.03162 µM)?
Answer: 0.442

Question: And the relative viability (SW 900; first compound 0.1 µM)?
Answer: 0.315

Question: And the relative viability (NCI-H2023; first compound 0.001 µM)?
Answer: 0.471

Question: And the relative viability (NCI-H2023; first compound 0.003162 µM)?
Answer: 0.569

Question: And the relative viability (NCI-H2023; first compound 0.01 µM)?
Answer: 0.828

Question: And the relative viability (NCI-H2023; first compound 0.03162 µM)?
Answer: 0.418

Question: And the relative viability (NCI-H2023; first compound 0.1 µM)?
Answer: 0.405

Question: What about the relative viability (HARA; first compound 0.001 µM) of the same molecule?
Answer: 0.325

Question: And the relative viability (HARA; first compound 0.003162 µM)?
Answer: 0.345

Question: What about the relative viability (HARA; first compound 0.01 µM) of the same molecule?
Answer: 0.289

Question: What about the relative viability (HARA; first compound 0.03162 µM) of the same molecule?
Answer: 0.178

Question: What about the relative viability (HARA; first compound 0.1 µM) of the same molecule?
Answer: 0.112

Question: What about the relative viability (NCI-H2087; first compound 0.001 µM) of the same molecule?
Answer: 0.821

Question: And the relative viability (NCI-H2087; first compound 0.003162 µM)?
Answer: 1.33

Question: And the relative viability (NCI-H2087; first compound 0.01 µM)?
Answer: 1.13

Question: And the relative viability (NCI-H2087; first compound 0.03162 µM)?
Answer: 0.357

Question: And the relative viability (NCI-H2087; first compound 0.1 µM)?
Answer: 0.203

Question: What about the relative viability (EPLC-272H; first compound 0.001 µM) of the same molecule?
Answer: 0.303

Question: And the relative viability (EPLC-272H; first compound 0.003162 µM)?
Answer: 0.343

Question: And the relative viability (EPLC-272H; first compound 0.01 µM)?
Answer: 0.364

Question: What about the relative viability (EPLC-272H; first compound 0.03162 µM) of the same molecule?
Answer: 0.226

Question: What about the relative viability (EPLC-272H; first compound 0.1 µM) of the same molecule?
Answer: 0.107

Question: What about the relative viability (SW 1573; first compound 0.001 µM) of the same molecule?
Answer: 0.398

Question: What about the relative viability (SW 1573; first compound 0.003162 µM) of the same molecule?
Answer: 0.455

Question: What about the relative viability (SW 1573; first compound 0.01 µM) of the same molecule?
Answer: 0.749

Question: And the relative viability (SW 1573; first compound 0.03162 µM)?
Answer: 0.234

Question: And the relative viability (SW 1573; first compound 0.1 µM)?
Answer: 0.261

Question: And the relative viability (NCI-H1975; first compound 0.001 µM)?
Answer: 0.312

Question: And the relative viability (NCI-H1975; first compound 0.003162 µM)?
Answer: 0.39

Question: And the relative viability (NCI-H1975; first compound 0.01 µM)?
Answer: 0.309

Question: What about the relative viability (NCI-H1975; first compound 0.03162 µM) of the same molecule?
Answer: 0.318

Question: What about the relative viability (NCI-H1975; first compound 0.1 µM) of the same molecule?
Answer: 0.209

Question: And the relative viability (H3255; first compound 0.001 µM)?
Answer: 0.381

Question: What about the relative viability (H3255; first compound 0.003162 µM) of the same molecule?
Answer: 0.325

Question: What about the relative viability (H3255; first compound 0.03162 µM) of the same molecule?
Answer: 0.316

Question: And the relative viability (H3255; first compound 0.1 µM)?
Answer: 0.304

Question: And the relative viability (NCI-H23; first compound 0.001 µM)?
Answer: 0.691

Question: What about the relative viability (NCI-H23; first compound 0.003162 µM) of the same molecule?
Answer: 0.681

Question: What about the relative viability (NCI-H23; first compound 0.01 µM) of the same molecule?
Answer: 0.823

Question: What about the relative viability (NCI-H23; first compound 0.03162 µM) of the same molecule?
Answer: 0.309

Question: And the relative viability (NCI-H23; first compound 0.1 µM)?
Answer: 0.508

Question: And the relative viability (PC-3 [JPC-3]; first compound 0.001 µM)?
Answer: 0.95

Question: What about the relative viability (PC-3 [JPC-3]; first compound 0.003162 µM) of the same molecule?
Answer: 1.09

Question: What about the relative viability (PC-3 [JPC-3]; first compound 0.01 µM) of the same molecule?
Answer: 1.1

Question: And the relative viability (PC-3 [JPC-3]; first compound 0.03162 µM)?
Answer: 0.844

Question: And the relative viability (PC-3 [JPC-3]; first compound 0.1 µM)?
Answer: 0.528

Question: What about the relative viability (NCI-H838; first compound 0.001 µM) of the same molecule?
Answer: 0.279

Question: And the relative viability (NCI-H838; first compound 0.003162 µM)?
Answer: 0.302

Question: And the relative viability (NCI-H838; first compound 0.01 µM)?
Answer: 0.278

Question: What about the relative viability (NCI-H838; first compound 0.03162 µM) of the same molecule?
Answer: 0.268

Question: And the relative viability (NCI-H838; first compound 0.1 µM)?
Answer: 0.291

Question: And the relative viability (UMC-11; first compound 0.001 µM)?
Answer: 0.41

Question: And the relative viability (UMC-11; first compound 0.003162 µM)?
Answer: 0.655

Question: What about the relative viability (UMC-11; first compound 0.01 µM) of the same molecule?
Answer: 0.649

Question: What about the relative viability (UMC-11; first compound 0.1 µM) of the same molecule?
Answer: 0.247

Question: And the relative viability (LC-2-ad; first compound 0.001 µM)?
Answer: 0.512

Question: What about the relative viability (LC-2-ad; first compound 0.003162 µM) of the same molecule?
Answer: 0.701

Question: And the relative viability (LC-2-ad; first compound 0.01 µM)?
Answer: 0.574

Question: And the relative viability (LC-2-ad; first compound 0.03162 µM)?
Answer: 0.43

Question: And the relative viability (LC-2-ad; first compound 0.1 µM)?
Answer: 0.387

Question: And the relative viability (NCI-H2009; first compound 0.001 µM)?
Answer: 0.278

Question: And the relative viability (NCI-H2009; first compound 0.003162 µM)?
Answer: 0.258

Question: What about the relative viability (NCI-H2009; first compound 0.01 µM) of the same molecule?
Answer: 0.261

Question: And the relative viability (NCI-H2009; first compound 0.03162 µM)?
Answer: 0.212

Question: And the relative viability (NCI-H2009; first compound 0.1 µM)?
Answer: 0.199
